“Also recorded” adds a separate entry of the source. Read-outs that look alike come from different tables or passages of the source.
What was measured:
MPS IIIB fibroblasts = assay: Number of lysosomal structures by electron microscopy, MPS IIIB; format: cell-based, human; settings: 30 μM
[1] = test system: fibroblasts of patients affected with MPS I; assay: 35S-sulphate incorporation test of glycosaminoglycans synthesis, MPS I cells; format: cell-based, human; settings: for Relative GAG synthesis (converted to 1 cell), MPS I / activity at 30 µM / Inhibition in relation to genistein, second symbol (MPS I): 30 μM; for Relative GAG synthesis (converted to 1 cell), MPS I / activity at 30 µM: DMSO control = 1; for activity at 30 µM: Homo sapiens, Fibroblast, read-out: Relative GAG synthesis (converted to 1 cell), MPS I
Description: (§1) The activity of isoflavones was evaluated by the measure of glycosaminoglycans synthesis in 35S-sulphate incorporation test comprising incubation of the radiolabelled 35S-sulfate into GAGs in cultured human skin fibroblasts derived from normal individuals (control) and patients affected with mucopolysaccharidose (Murata et al., Arch Biochem Biophys 2003; 413: 229-235).
(§2) The negative control was DMSO (diluent for genistein and all derivatives), the positive control—genistein. […] Experiment with each cell line has been repeated twice, and every measurement has been done twice.

[2] = Proliferation 144 h (Table 4); format: cell-based; settings: read-out: Proliferation 144 h IC50
[3] = test system: glycosaminoglycan (GAG) synthesis; assay: GAG synthesis, 35S incorp. (Table 4); format: cell-based
MPS IIIA fibroblasts = assay: Number of lysosomal structures by electron microscopy, MPS IIIA; format: cell-based, human; settings: 30 μM
[4] = test system: cultured human skin fibroblasts derived from patients affected with mucopolysaccharidose; assay: 35S-sulphate incorporation test of glycosaminoglycans synthesis, different human cell lines / MPS types; format: cell-based; settings: for influence on GAG synthesis compared with genistein (in words): 30 μM, both cell lines of Table 2
Description: as §1, §2

[5] = test system: cultured human skin fibroblasts derived from normal individuals; assay: 35S-sulphate incorporation test of glycosaminoglycans synthesis, normal cells; format: cell-based; settings: for Relative GAG synthesis (converted to 1 cell), Normal cells / Inhibition in relation to genistein, first symbol (normal cells) / activity at 30 µM: 30 μM; for Relative GAG synthesis (converted to 1 cell), Normal cells / activity at 30 µM: DMSO control = 1; for activity at 30 µM: Homo sapiens, Skin fibroblast, read-out: Relative GAG synthesis (converted to 1 cell), Normal cells
Description: as §1, §2

[6] = test system: fibroblasts cells derived from patients affected with different MPSs; assay: GAG level / deposits in cultured fibroblasts of MPS patients; format: cell-based, human
[7] = rat; intravenously administered; cited from earlier work
fibroblasts = assay: Electron microscope observation of GAG deposits in fibroblasts; format: cell-based, human; settings: fibroblasts cultured one week; genistein 10 micromolar
[8] = read-out: Cytotoxicity 24 h LC50, 24 h
[9] = read-out: Cytotoxicity 48 h LC50, 48 h

CCCC[N+](CCCC)(CCCC)CCCC.O=C([O-])CCCC(=O)Oc1cc(O)c2c(=O)c(-c3ccc(O)cc3)coc2c1 [IFG-038]
Number of structures per 100 μm^2 of cellular cross section ± SD, amorphous (MPS IIIB fibroblasts): 0.09 ± 0.09 per 100 μm^2
Number of structures per 100 μm^2 of cellular cross section ± SD, complexed (MPS IIIB fibroblasts): 0.10 ± 0.10 per 100 μm^2
Number of structures per 100 μm^2 of cellular cross section ± SD, lamellar (MPS IIIB fibroblasts): 0.21 ± 0.12 per 100 μm^2
Number of structures per 100 μm^2 of cellular cross section ± SD, total number (MPS IIIB fibroblasts): 0.41 ± 0.18 per 100 μm^2
CC50 [8]: > 30 µM
CC50 [9]: > 30 µM
Relative GAG synthesis (converted to 1 cell), MPS I [1]: 0.74
IC50 [2]: 19.9 µM
GAG synthesis 35S incorp. [3]: 55 ± 13%
Number of structures per 100 μm^2 of cellular cross section ± SD, amorphous (MPS IIIA fibroblasts): 0.21 ± 0.13 per 100 μm^2
Number of structures per 100 μm^2 of cellular cross section ± SD, complexed (MPS IIIA fibroblasts): 0.27 ± 0.13 per 100 μm^2
Number of structures per 100 μm^2 of cellular cross section ± SD, lamellar (MPS IIIA fibroblasts): 0.32 ± 0.16 per 100 μm^2
Number of structures per 100 μm^2 of cellular cross section ± SD, total number (MPS IIIA fibroblasts): 0.80 ± 0.24 per 100 μm^2
influence on GAG synthesis compared with genistein (in words) [4]: an activity comparable with genistein
Relative GAG synthesis (converted to 1 cell), Normal cells [5]: 0.74

CCCC[N+](CCCC)(CCCC)CCCC.O=C([O-])COc1cc(O)c2c(=O)c(-c3ccc(O)cc3)coc2c1 [IFG-074, tetrabutylammonium[5-hydroxy-3-(4-hydroxy-phenyl)-4-oxo-4H-chromen-7-yloxy]acetate]
CC50 [8]: 44.1 µM
CC50 [9]: 32.8 µM
IC50 [2]: 27.3 µM
GAG synthesis 35S incorp. [3]: 88 ± 39%

CC(=O)Oc1ccc(-c2coc3cc(OC(C)=O)cc(OC(C)=O)c3c2=O)cc1 [IFG-032]
Number of structures per 100 μm^2 of cellular cross section ± SD, amorphous (MPS IIIB fibroblasts): 0.12 ± 0.08 per 100 μm^2
Number of structures per 100 μm^2 of cellular cross section ± SD, complexed (MPS IIIB fibroblasts): 0.10 ± 0.07 per 100 μm^2
Number of structures per 100 μm^2 of cellular cross section ± SD, lamellar (MPS IIIB fibroblasts): 0.17 ± 0.11 per 100 μm^2
Number of structures per 100 μm^2 of cellular cross section ± SD, total number (MPS IIIB fibroblasts): 0.40 ± 0.20 per 100 μm^2
activity at 30 µM [1]: 68%
IC50 [2]: 17.4 µM
Number of structures per 100 μm^2 of cellular cross section ± SD, amorphous (MPS IIIA fibroblasts): 0.17 ± 0.16 per 100 μm^2
Number of structures per 100 μm^2 of cellular cross section ± SD, complexed (MPS IIIA fibroblasts): 0.22 ± 0.11 per 100 μm^2
Number of structures per 100 μm^2 of cellular cross section ± SD, lamellar (MPS IIIA fibroblasts): 0.14 ± 0.08 per 100 μm^2
Number of structures per 100 μm^2 of cellular cross section ± SD, total number (MPS IIIA fibroblasts): 0.53 ± 0.19 per 100 μm^2
influence on GAG synthesis compared with genistein (in words) [4]: an activity comparable with genistein, but only for one cell line
Inhibition in relation to genistein, first symbol (normal cells) [5]: 0
activity at 30 µM [5]: 25%
CC50 at 24 h (in vitro): > 30 µM
CC50 at 48 h (in vitro): > 30 µM

Cc1ccc(S(=O)(=O)OCCOCCOCCOc2cc(O)c3c(=O)c(-c4ccc(O)cc4)coc3c2)cc1 [IFG-046]
CC50 [8]: 20.7 µM
Inhibition in relation to genistein, second symbol (MPS I) [1]: 0
Relative GAG synthesis (converted to 1 cell), MPS I [1]: 0.49
GAG synthesis 35S incorp. [3]: 118 ± 72%
Inhibition in relation to genistein, first symbol (normal cells) [5]: −
Relative GAG synthesis (converted to 1 cell), Normal cells [5]: 1.80

O=c1c(-c2ccc(O)cc2)coc2cc(O)cc(O)c12 [Genistein, 4′,5,7-trihydroxy-3-phenylchromen-4-on, reference compound]
level of glycosaminoglycans in cells (in words) ([6]; cells of MPS I, MPS II, MPS IIIA and MPS IIIB patients, six days): significantly decreased, reaching after six days a level almost identical with the normal one
genistein concentrations at which decrease of GAG synthesis and reduction of deposits is observed ([6]; cultured fibroblasts): 10 to 20 µmol/L
removal of GAG deposits accumulated in cells (in words) ([6]; few days of cultivation, genistein 10 micromoles/l, FIG. 4): deposits are gradually removed; also recorded: comparable with the activity of recombinant human α-L-iduronidase (Aldurazyme)
activity at 30 µM [1]: 51%
level of glycosaminoglycans synthesis (in words) ([1]; fibroblasts from MPS 1 patients, FIG. 1): significant decreasing
IC50 [2]: 16.9 µM
effectiveness of crossing the blood-brain barrier [7]: about 10%
glycosaminoglycans synthesis (in words) ([4]; cells from individuals with other types of MPS, FIG. 2, FIG. 3): significantly reduced
glycosaminoglycans synthesis (in words) ([4]; cultured fibroblasts from MPS patients, 10-30 micromoles/l): significant inhibition of glycosaminoglycans synthesis
Inhibition in relation to genistein, first symbol (normal cells) [5]: 0
activity at 30 µM [5]: 25%
level of glycosaminoglycans synthesis (in words) ([5]; fibroblasts from normal individuals, FIG. 1): significant decreasing
deposits seen by electron microscope (in words) (fibroblasts): disappearance of deposits; also recorded: decline of the before accumulated glycosaminoglycans

O=C([O-])CCCC(=O)Oc1ccc(-c2coc3cc(OCc4ccccc4)cc(O)c3c2=O)cc1.[Na+] [IFG-061]
CC50 [8]: 18.8 µM
Relative GAG synthesis (converted to 1 cell), MPS I [1]: 0.46
Inhibition in relation to genistein, first symbol (normal cells) [5]: 0/0
Relative GAG synthesis (converted to 1 cell), Normal cells [5]: 0.28

CCC(=O)OCOc1cc(O)c2c(=O)c(-c3ccc(O)cc3)coc2c1 [IFG-036]
Number of structures per 100 μm^2 of cellular cross section ± SD, amorphous (MPS IIIB fibroblasts): 0.15 ± 0.18 per 100 μm^2
Number of structures per 100 μm^2 of cellular cross section ± SD, complexed (MPS IIIB fibroblasts): 0.12 ± 0.11 per 100 μm^2
Number of structures per 100 μm^2 of cellular cross section ± SD, lamellar (MPS IIIB fibroblasts): 0.25 ± 0.21 per 100 μm^2
Number of structures per 100 μm^2 of cellular cross section ± SD, total number (MPS IIIB fibroblasts): 0.50 ± 0.34 per 100 μm^2
CC50 [8]: > 30 µM
CC50 [9]: > 30 µM
Inhibition in relation to genistein, second symbol (MPS I) [1]: 0/0
Relative GAG synthesis (converted to 1 cell), MPS I [1]: 0.49
IC50 [2]: 11.2 µM
GAG synthesis 35S incorp. [3]: 64 ± 21%
Number of structures per 100 μm^2 of cellular cross section ± SD, amorphous (MPS IIIA fibroblasts): 0.22 ± 0.11 per 100 μm^2
Number of structures per 100 μm^2 of cellular cross section ± SD, complexed (MPS IIIA fibroblasts): 0.28 ± 0.16 per 100 μm^2
Number of structures per 100 μm^2 of cellular cross section ± SD, lamellar (MPS IIIA fibroblasts): 0.19 ± 0.14 per 100 μm^2
Number of structures per 100 μm^2 of cellular cross section ± SD, total number (MPS IIIA fibroblasts): 0.73 ± 0.31 per 100 μm^2
influence on GAG synthesis compared with genistein (in words) [4]: an activity comparable with genistein
Inhibition in relation to genistein, first symbol (normal cells) [5]: 0/0
Relative GAG synthesis (converted to 1 cell), Normal cells [5]: 0.27

From patent US20140107051A1, “ISOFLAVONES FOR TREATING MUCOPOLYSACCHARIDOSES” (INSTYTUT FARMACEUTYCZNY, priority 2005, published 2014)
